Data taken from patent US20030206876A1, “Composition” (priority 2000, published 2003).

System: oral bacteria (production of volatile sulfur compounds from cysteine)
Assay: cysteine challenge method for halitosis (oral malodor) efficacy, VSC response measured with Halimeter
Format: in vivo
Procedure: The ability of low doses of chlorhexidine to combat halitosis (oral malodor) was assessed using the cysteine challenge method. This measures the ability of oral bacteria to produce volatile sulfur compounds (VSC), the major odor component of oral malodor, from cysteine and is correlated with organoleptic evaluation by odor judges. Testing consists of rinsing the mouth with 5 ml of 6 mM cysteine for 30 seconds and measuring the resulting the VSC response (mainly hydrogen sulphide) with a chemical sensor instrument such as the Halimeter. Cysteine challenge testing consisted of the obtaining of an initial baseline VSC determination, the subsequent introduction of the cysteine challenge substrate, measuring the VSC response over a 20 minute period, introducing the test rinse and at set times thereafter, repeating the cysteine challenge for up to 7 hours. Inhibition was assessed quantitatively by the degree of inhibition of VSC production from cysteine by the test agent, chlorhexidine digluconate, as compared to VSC production from cysteine at baseline. Duration of the inhibition was assessed as the time it takes for VSC production with successive cysteine challenges to return to that seen at baseline.

[H]/N=C(\N/C(=N/[H])NCCCCCCNC(=N)NC(=N)Nc1ccc(Cl)cc1)Nc1ccc(Cl)cc1 [chlorhexidine digluconate]
inhibition of production of VSCs at lower concentrations (chlorhexidine digluconate 0.020, 0.015, 0.0125 and 0.010% by weight of the composition): Similarly advantageous results | time after the rinse at which most inhibition of VSC production was seen (mouthrinse, chlorhexidine digluconate 0.025% (v/v)): two | inhibition of production of VSCs from cysteine compared to baseline (mouthrinse, chlorhexidine digluconate 0.025% (v/v), cysteine challenge 5 ml of 6 mM cysteine for 30 seconds): significantly inhibit | duration of the inhibition of VSC production from the initial rinse (gradually decreasing levels) (mouthrinse, chlorhexidine digluconate 0.025% (v/v), successive cysteine challenges for up to 7 hours): over 7 hours
